Like-named read-outs stand apart in the source and are kept apart here.
How the values were obtained:
[1] = system: H929 human cancer cell lines; test: Cellular viability / proliferation (Cell TiterGlo, 72 h); type: cell-based
Summary of the method: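 H929 cells plated at 1,000/well in 10% FBS medium received a 2-fold serial compound dilution (top 50 μM, DMSO <1%) 24 h later. After 72 h, viability was read by CellTiter-Glo luminescence. IC50 came from a four-parameter fit.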

Mcl-1 = Mcl-1 (Homo sapiens (Human), UniProt Q07820); test: Fluorescence polarization anisotropy (FPA) competition assay, FITC-Bak or FITC-Bim BH3 peptide; type: binding; conditions: read-out: Ki for Inhibition of Mcl-1 by FPA assay
[2] = Homo sapiens, NCI-H929, 72 h, read-out: GI50 on cellular proliferation of H929 human cancer cell lines, H929 cells, 72 h, Cell TiterGlo, 10% FBS

Chain of Mcl-1 (Q07820 172-327): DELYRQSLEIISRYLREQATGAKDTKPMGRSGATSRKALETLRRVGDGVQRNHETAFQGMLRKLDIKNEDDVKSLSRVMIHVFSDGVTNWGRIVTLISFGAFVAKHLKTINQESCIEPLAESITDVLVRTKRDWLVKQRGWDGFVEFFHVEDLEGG

Cc1cc(OCCCc2c3n(c4c(-c5c(C)nn(C)c5C)c(Cl)ccc24)[C@H](C)CN(c2cn(C)c4ccc(C(=O)O)cc24)C3=O)ccc1Cl [Example 407, (R)-3-(7-Chloro-10-(3-(4-chloro-3-methylphenoxy)propyl)-4-methyl-1-oxo-6-(1,3,5-trimethyl-1H-pyrazol-4-yl)-3,4-dihydropyrazino[1,2-a]indol-2(1H)-yl)-1-methyl-1H-indole-5-carboxylic acid]
GI50 [1, 2]: 0.49 µM
Ki (Mcl-1): 0.0011 µM

Cc1cc(OCCCc2c3n(c4c(-c5c(C)nn(CC6CCOCC6)c5C)c(Cl)ccc24)[C@H](C)CN(c2cn(C)c4ccc(C(=O)O)cc24)C3=O)cc(C)c1Cl [Example 262, (R)-3-(7-chloro-10-(3-(4-chloro-3,5-dimethylphenoxy)propyl)-6-(3,5-dimethyl-1-((tetrahydro-2H-pyran-4-yl)methyl)-1H-pyrazol-4-yl)-4-methyl-1-oxo-3,4-dihydropyrazino[1,2-a]indol-2(1H)-yl)-1-methyl-1H-indole-5-carboxylic acid]
GI50 [1, 2]: 0.45 µM
Ki (Mcl-1): < 0.001 µM

COC(=O)c1ccc2c(c1)c(N1C[C@@H](C)n3c(c(CCCOc4cc(C)c(Cl)c(C)c4)c4ccc(Cl)c(-c5c(C)nn(C)c5C)c43)C1=O)cn2C (single isomer, unassigned) [Example 207]
GI50 ([1]; read-out: GI50 on cellular proliferation of H929 human cancer cell lines, H929 cells, 72 h, Cell TiterGlo, 10% FBS): 0.75 µM
Ki (Mcl-1): < 0.001 µM

Cc1cc(OCCCc2c3n(c4c(-c5c(C)nn(C)c5C)c(Cl)ccc24)[C@H](C)CN(c2cn(C)c4ccc(-c5ccccn5)cc24)C3=O)cc(C)c1Cl [Example 389, (R)-7-Chloro-10-(3-(4-chloro-3,5-dimethylphenoxy)propyl)-4-methyl-2-(1-methyl-5-(pyridin-2-yl)-1H-indol-3-yl)-6-(1,3,5-trimethyl-1H-pyrazol-4-yl)-3,4-dihydropyrazino[1,2-a]indol-1(2H)-one]
GI50 [1, 2]: 1.5 µM
Ki (Mcl-1): < 0.001 µM

CC(=O)c1ccc2c(c1)c(N1C[C@@H](C)n3c(c(CCCOc4cc(C)c(Cl)c(C)c4)c4ccc(Cl)c(-c5c(C)nn(C)c5C)c43)C1=O)cn2C [Example 260, (R)-2-(5-Acetyl-1-methyl-1H-indol-3-yl)-7-chloro-10-(3-(4-chloro-3,5-dimethylphenoxy)propyl)-4-methyl-6-(1,3,5-trimethyl-1H-pyrazol-4-yl)-3,4-dihydropyrazino[1,2-a]indol-1(2H)-one]
GI50 [1, 2]: 0.55 µM
Ki (Mcl-1): < 0.001 µM

Cc1cc(OCCCc2c3n(c4c(-c5c(C)ncnc5C)c(Cl)ccc24)[C@H](C)CN(c2cccc4cc(C(=O)O)ccc24)C3=O)cc(C)c1Cl [Example 218, 5-[(4R)-7-chloro-10-[3-(4-chloro-3,5-dimethyl-phenoxy)propyl]-6-(4,6-dimethylpyrimidin-5-yl)-4-methyl-1-oxo-3,4-dihydropyrazino[1,2-a]indol-2-yl]naphthalene-2-carboxylic acid]
GI50 [1, 2]: < 0.2 µM
Ki (Mcl-1): < 0.001 µM

COCCn1c(C(=O)O)cc2c(N3C[C@@H](C)n4c(c(CCCOc5cc(C)c(Cl)c(C)c5)c5ccc(Cl)c(-c6c(C)nn(C)c6C)c54)C3=O)cccc21 [Example 353, (R)-4-(7-Chloro-10-(3-(4-chloro-3,5-dimethylphenoxy)propyl)-4-methyl-1-oxo-6-(1,3,5-trimethyl-1H-pyrazol-4-yl)-3,4-dihydropyrazino[1,2-a]indol-2(1H)-yl)-1-(2-methoxyethyl)-1H-indole-2-carboxylic acid]
GI50 [1, 2]: 2.9 µM
Ki (Mcl-1): 0.0021 µM

COc1cc(C(=O)O)cc(N2CCCn3c(c(CCCOc4cc(C)c(Cl)c(C)c4)c4ccc(Cl)c(-c5c(C)nn(C)c5C)c43)C2=O)c1OCCc1ccccc1 [Example 66, 3-[8-Chloro-11-[3-(4-chloro-3,5-dimethyl-phenoxy)propyl]-1-oxo-7-(1,3,5-trimethylpyrazol-4-yl)-4,5-dihydro-3H-[1,4]diazepino[1,2-a]indol-2-yl]-5-methoxy-4-(2-phenylethoxy)benzoic acid]
GI50 [1, 2]: 6.4 µM
Ki (Mcl-1): 0.0043 µM

Cc1cc(OCCCc2c3n(c4c(-c5c(C)nn(C)c5C)c(Cl)ccc24)[C@H](C)CN(c2ccc4c(c2)cc(C(=O)O)n4C)C3=O)cc(C)c1Cl [Example 114, (R)-5-(7-Chloro-10-(3-(4-chloro-3,5-dimethylphenoxy)propyl)-4-methyl-1-oxo-6-(1,3,5-trimethyl-1H-pyrazol-4-yl)-3,4-dihydropyrazino[1,2-a]indol-2(1H)-yl)-1-methyl-1H-indole-2-carboxylic acid]
GI50 [1, 2]: 0.84 µM
Ki (Mcl-1): < 0.001 µM

Cc1cc(OCCCc2c3n(c4c(-c5c(C)nn(CC6CCN(C)CC6)c5C)c(Cl)ccc24)[C@H](C)CN(c2cccc4c(C(=O)O)cn(C)c24)C3=O)cc(C)c1Cl [Example 137, (R)-7-(7-chloro-10-(3-(4-chloro-3,5-dimethylphenoxy)propyl)-6-(3,5-dimethyl-1-((1-methylpiperidin-4-yl)methyl)-1H-pyrazol-4-yl)-4-methyl-1-oxo-3,4-dihydropyrazino[1,2-a]indol-2(1H)-yl)-1-methyl-1H-indole-3-carboxylic acid]
GI50 [1, 2]: 0.46 µM
Ki (Mcl-1): 0.0012 µM

Cc1cc(OCCCc2c3n(c4c(-c5c(C)nn(C)c5C)c(Cl)ccc24)[C@H](C)CN(c2cc(OCCN4CCN(C)CC4)cc4cc(C(=O)O)n(C)c24)C3=O)cc(C)c1Cl [Example 453, (R)-7-(7-Chloro-10-(3-(4-chloro-3,5-dimethylphenoxy)propyl)-4-methyl-1-oxo-6-(1,3,5-trimethyl-1H-pyrazol-4-yl)-3,4-dihydropyrazino[1,2-a]indol-2(1H)-yl)-1-methyl-5-(2-(4-methylpiperazin-1-yl)ethoxy)-1H-indole-2-carboxylic acid]
GI50 [1, 2]: 0.33 µM
Ki (Mcl-1): 0.0017 µM

Cc1cc(OCCCc2c3n(c4c(-c5c(C)nn(CC6CCN(C)C6)c5C)c(Cl)ccc24)[C@H](C)CN(c2cn(C)c4ccc(C(=O)O)cc24)C3=O)cc(C)c1Cl (stereo partly drawn) [Example 261, 3-((4R)-7-chloro-10-(3-(4-chloro-3,5-dimethylphenoxy)propyl)-6-(3,5-dimethyl-1-((1-methylpyrrolidin-3-yl)methyl)-1H-pyrazol-4-yl)-4-methyl-1-oxo-3,4-dihydropyrazino[1,2-a]indol-2(1H)-yl)-1-methyl-1H-indole-5-carboxylic acid]
GI50 [1, 2]: 0.53 µM
Ki (Mcl-1): < 0.001 µM

Cc1cc(OCCCc2c3n(c4c(-c5c(C)nn(C)c5C)c(Cl)ccc24)[C@H](C)CN(c2cccc4c(C(=O)O)nn(C)c24)C3=O)cc(C)c1Cl [Example 59, (R)-7-(7-chloro-10-(3-(4-chloro-3,5-dimethylphenoxy)propyl)-4-methyl-1-oxo-6-(1,3,5-trimethyl-1H-pyrazol-4-yl)-3,4-dihydropyrazino[1,2-a]indol-2(1H)-yl)-1-methyl-1H-indazole-3-carboxylic acid]
GI50 [1, 2]: 0.28 µM
Ki (Mcl-1): < 0.001 µM

Cc1cc(OCCCc2c3n(c4c(-c5c(C)nn(C)c5C)c(Cl)ccc24)[C@H](C)CN(c2cc(C(=O)O)cc4c2cnn4C)C3=O)cc(C)c1Cl [Example 84, (R)-4-(7-chloro-10-(3-(4-chloro-3,5-dimethylphenoxy)propyl)-4-methyl-1-oxo-6-(1,3,5-trimethyl-1H-pyrazol-4-yl)-3,4-dihydropyrazino[1,2-a]indol-2(1H)-yl)-1-methyl-1H-indazole-6-carboxylic acid]
GI50 [1, 2]: 1.2 µM
Ki (Mcl-1): < 0.001 µM

Cc1cc(OCCCc2c3n(c4c(-c5c(C)nn(C)c5C)c(Cl)ccc24)[C@H](C)CN(c2cccc4c(C(=O)O)c(C)n(C)c24)C3=O)cc(C)c1Cl [Example 417, (R)-7-(7-Chloro-10-(3-(4-chloro-3,5-dimethylphenoxy)propyl)-4-methyl-1-oxo-6-(1,3,5-trimethyl-1H-pyrazol-4-yl)-3,4-dihydropyrazino[1,2-a]indol-2(1H)-yl)-1,2-dimethyl-1H-indole-3-carboxylic acid]
GI50 [1, 2]: 0.34 µM
Ki (Mcl-1): 0.0013 µM

Cc1cc(OCCCc2c3n(c4c(-c5c(C)n[nH]c5C)c(Cl)ccc24)[C@H](C)CN(c2cc(C(=O)O)c4cnn(C)c4c2)C3=O)cc(C)c1Cl [Example 93, (R)-6-(7-chloro-10-(3-(4-chloro-3,5-dimethylphenoxy)propyl)-6-(3,5-dimethyl-1H-pyrazol-4-yl)-4-methyl-1-oxo-3,4-dihydropyrazino[1,2-a]indol-2(1H)-yl)-1-methyl-1H-indazole-4-carboxylic acid]
GI50 [1, 2]: 7.5 µM
Ki (Mcl-1): < 0.001 µM

Cc1cc(N2C[C@@H](C)n3c(c(CCCOc4cc(C)c(Cl)c(C)c4)c4ccc(Cl)c(-c5c(C)ncnc5C)c43)C2=O)c2c(c1)c(C)c(C(=O)O)n2C [Example 339, (R)-7-(7-Chloro-10-(3-(4-chloro-3,5-dimethylphenoxy)propyl)-6-(4,6-dimethylpyrimidin-5-yl)-4-methyl-1-oxo-3,4-dihydropyrazino[1,2-a]indol-2(1H)-yl)-1,3,5-trimethyl-1H-indole-2-carboxylic acid]
GI50 [1, 2]: 0.32 µM
Ki (Mcl-1): < 0.001 µM

Cc1cc(OCCCc2c3n(c4c(-c5c(C)nn(C)c5C)c(Cl)ccc24)[C@H](C)CN(c2cn(C)c4c(-c5nnnn5C)cccc24)C3=O)cc(C)c1Cl [Example 372, (R)-7-Chloro-10-(3-(4-chloro-3,5-dimethylphenoxy)propyl)-4-methyl-2-(1-methyl-7-(1-methyl-1H-tetrazol-5-yl)-1H-indol-3-yl)-6-(1,3,5-trimethyl-1H-pyrazol-4-yl)-3,4-dihydropyrazino[1,2-a]indol-1(2H)-one]
GI50 [1, 2]: 2 µM
Ki (Mcl-1): 0.0012 µM

Cc1cc(OCCCc2c3n(c4c(-c5c(C)nc(CN(C)C)nc5C)c(Cl)ccc24)[C@H](C)CN(c2cn(C)c4ccc(C(=O)O)cc24)C3=O)cc(C)c1Cl [Example 451, (R)-3-(7-Chloro-10-(3-(4-chloro-3,5-dimethylphenoxy)propyl)-6-(2-((dimethylamino)methyl)-4,6-dimethylpyrimidin-5-yl)-4-methyl-1-oxo-3,4-dihydropyrazino[1,2-a]indol-2(1H)-yl)-1-methyl-1H-indole-5-carboxylic acid]
GI50 [1, 2]: < 0.2 µM
Ki (Mcl-1): < 0.001 µM

From patent publication US11596639B2, “Substituted indole Mcl-1 inhibitors” (Vanderbilt University, priority 2016, dated 2023)
